# Data reported in ChEMBL document CHEMBL1201862, “PubChem BioAssay data set” (2004).
# Calls of active or inactive are those of the source.
# Columns and labels:
# [1] = target: T1, Sphingosine 1-phosphate receptor 4 (Homo sapiens, UniProt O95977); assay: Fluorescence dose response cell-based high throughput screening assay for antagonists of the Sphingosine 1-Phosphate Receptor 4 (S1P4). [Related pubchem assays: 1524 (Confirmation in triplicates.), 1510 (Primary screen.)]; assay type: functional
# T1 sequence (O95977 whole entry): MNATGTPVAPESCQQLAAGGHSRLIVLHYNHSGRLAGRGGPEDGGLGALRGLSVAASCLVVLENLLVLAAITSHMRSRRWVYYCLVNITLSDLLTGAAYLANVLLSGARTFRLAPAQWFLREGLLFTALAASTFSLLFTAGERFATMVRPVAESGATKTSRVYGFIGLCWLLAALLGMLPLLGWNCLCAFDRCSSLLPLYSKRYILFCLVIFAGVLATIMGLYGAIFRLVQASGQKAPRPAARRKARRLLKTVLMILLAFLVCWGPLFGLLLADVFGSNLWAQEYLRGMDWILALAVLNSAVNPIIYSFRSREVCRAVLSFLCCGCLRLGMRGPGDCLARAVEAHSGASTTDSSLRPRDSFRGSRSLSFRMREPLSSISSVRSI
# [2] = target: Sphingosine 1-phosphate receptor 1 (Homo sapiens, UniProt P21453); assay type: functional;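 note: Tango beta-arrestin reporter U2OS cells stimulated with S1P near its EC80; inhibitor potency meaning antagonism of receptor activation by the natural agonist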
# Chain of Sphingosine 1-phosphate receptor 1 (P21453 whole entry): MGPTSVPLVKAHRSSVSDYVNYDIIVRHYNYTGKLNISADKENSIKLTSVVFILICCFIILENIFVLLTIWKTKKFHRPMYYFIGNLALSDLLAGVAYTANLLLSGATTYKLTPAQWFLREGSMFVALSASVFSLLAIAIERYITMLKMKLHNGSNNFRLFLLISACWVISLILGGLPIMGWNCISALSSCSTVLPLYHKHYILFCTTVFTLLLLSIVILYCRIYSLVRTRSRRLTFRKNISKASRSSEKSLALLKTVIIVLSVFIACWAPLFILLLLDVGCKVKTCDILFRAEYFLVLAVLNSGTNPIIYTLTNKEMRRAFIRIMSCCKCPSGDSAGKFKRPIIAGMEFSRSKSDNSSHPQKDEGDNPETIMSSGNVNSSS
# [3] = target: T2, C-C chemokine receptor type 6 (Homo sapiens, UniProt P51684); assay: antagonism of CCR6 beta-arrestin recruitment – cell-based, luminescent beta-arrestin readout, dose response (AID 504728); assay type: functional
# T2 sequence (P51684 whole entry): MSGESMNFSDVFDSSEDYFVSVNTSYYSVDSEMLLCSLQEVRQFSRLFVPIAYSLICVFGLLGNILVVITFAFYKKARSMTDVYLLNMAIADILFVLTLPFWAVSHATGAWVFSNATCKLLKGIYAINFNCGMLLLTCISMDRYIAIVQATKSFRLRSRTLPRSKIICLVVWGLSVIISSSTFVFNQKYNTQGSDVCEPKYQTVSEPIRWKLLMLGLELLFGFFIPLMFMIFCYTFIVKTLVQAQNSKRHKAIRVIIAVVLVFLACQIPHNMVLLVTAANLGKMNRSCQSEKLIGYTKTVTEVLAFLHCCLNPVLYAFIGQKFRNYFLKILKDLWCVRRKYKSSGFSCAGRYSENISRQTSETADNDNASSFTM
# [4] = target: Nonstructural protein 1 (Influenza A virus, UniProt Q194T2); assay type: functional, Influenza A virus (A/California/07/2009(H1N1))
# Chain of Nonstructural protein 1 (Q194T2 whole entry): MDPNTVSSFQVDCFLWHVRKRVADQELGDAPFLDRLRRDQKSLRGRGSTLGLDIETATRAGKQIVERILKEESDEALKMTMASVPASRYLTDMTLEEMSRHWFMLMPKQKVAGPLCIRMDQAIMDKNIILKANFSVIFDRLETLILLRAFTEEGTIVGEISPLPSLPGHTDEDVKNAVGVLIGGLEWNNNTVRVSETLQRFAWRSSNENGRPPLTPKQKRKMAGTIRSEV
# [5] = decrease of insulin promoter-GFP reporter – imaging, high-content screening, mouse beta cells (AID 1628); assay type: functional; details: MIN6
# [6] = target: 1-phosphatidylinositol 4,5-bisphosphate phosphodiesterase gamma-1 (Homo sapiens, UniProt P19174); assay: Counterscreen for inhibitors of phospholipase C isozymes (PLC-B3): Fluorescence-based biochemical high throughput dose response assay to identify inhibitors of phospholipase C isozymes (PLC-gamma1).
# Chain of 1-phosphatidylinositol 4,5-bisphosphate phosphodiesterase gamma-1 (P19174 whole entry): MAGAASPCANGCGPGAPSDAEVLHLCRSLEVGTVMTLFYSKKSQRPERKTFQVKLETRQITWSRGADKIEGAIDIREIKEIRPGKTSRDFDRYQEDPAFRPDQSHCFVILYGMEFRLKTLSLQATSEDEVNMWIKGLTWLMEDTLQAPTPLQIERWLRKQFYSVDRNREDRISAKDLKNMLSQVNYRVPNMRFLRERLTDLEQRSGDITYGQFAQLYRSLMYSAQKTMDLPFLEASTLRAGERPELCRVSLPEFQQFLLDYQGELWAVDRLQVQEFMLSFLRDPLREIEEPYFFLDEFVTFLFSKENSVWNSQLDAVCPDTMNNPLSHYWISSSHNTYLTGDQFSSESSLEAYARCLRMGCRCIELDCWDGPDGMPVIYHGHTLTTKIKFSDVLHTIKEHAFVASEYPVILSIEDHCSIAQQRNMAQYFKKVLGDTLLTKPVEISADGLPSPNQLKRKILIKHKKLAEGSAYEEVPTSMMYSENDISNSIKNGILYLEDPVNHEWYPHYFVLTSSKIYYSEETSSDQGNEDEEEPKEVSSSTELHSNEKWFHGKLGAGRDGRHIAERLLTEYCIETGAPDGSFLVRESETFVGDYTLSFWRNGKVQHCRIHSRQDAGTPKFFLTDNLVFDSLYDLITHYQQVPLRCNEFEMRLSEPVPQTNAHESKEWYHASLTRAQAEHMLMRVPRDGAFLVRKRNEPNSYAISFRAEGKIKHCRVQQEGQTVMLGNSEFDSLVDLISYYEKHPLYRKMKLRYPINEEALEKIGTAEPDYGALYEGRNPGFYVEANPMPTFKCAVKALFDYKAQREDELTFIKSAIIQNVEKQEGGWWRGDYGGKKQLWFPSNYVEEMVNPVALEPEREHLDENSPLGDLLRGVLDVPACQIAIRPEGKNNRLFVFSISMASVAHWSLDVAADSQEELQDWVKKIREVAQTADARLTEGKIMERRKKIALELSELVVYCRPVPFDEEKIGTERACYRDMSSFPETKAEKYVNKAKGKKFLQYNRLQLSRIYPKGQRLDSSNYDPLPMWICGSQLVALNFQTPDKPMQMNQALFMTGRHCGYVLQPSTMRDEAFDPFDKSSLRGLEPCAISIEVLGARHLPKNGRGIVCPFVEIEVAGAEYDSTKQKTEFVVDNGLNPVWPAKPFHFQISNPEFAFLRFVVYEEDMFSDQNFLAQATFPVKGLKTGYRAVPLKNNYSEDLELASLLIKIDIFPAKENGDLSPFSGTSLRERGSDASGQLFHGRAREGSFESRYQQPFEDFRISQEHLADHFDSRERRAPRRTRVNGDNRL
# [7] = target: Glucose-6-phosphate 1-dehydrogenase (Homo sapiens, UniProt P11413); assay: inhibition of Homo sapiens G6PD, dose series – biochemical, fluorescence, selectivity assay for P. falciparum G6PD inhibitor project, dose response (AID 504792); assay type: functional
# Chain of Glucose-6-phosphate 1-dehydrogenase (P11413 whole entry): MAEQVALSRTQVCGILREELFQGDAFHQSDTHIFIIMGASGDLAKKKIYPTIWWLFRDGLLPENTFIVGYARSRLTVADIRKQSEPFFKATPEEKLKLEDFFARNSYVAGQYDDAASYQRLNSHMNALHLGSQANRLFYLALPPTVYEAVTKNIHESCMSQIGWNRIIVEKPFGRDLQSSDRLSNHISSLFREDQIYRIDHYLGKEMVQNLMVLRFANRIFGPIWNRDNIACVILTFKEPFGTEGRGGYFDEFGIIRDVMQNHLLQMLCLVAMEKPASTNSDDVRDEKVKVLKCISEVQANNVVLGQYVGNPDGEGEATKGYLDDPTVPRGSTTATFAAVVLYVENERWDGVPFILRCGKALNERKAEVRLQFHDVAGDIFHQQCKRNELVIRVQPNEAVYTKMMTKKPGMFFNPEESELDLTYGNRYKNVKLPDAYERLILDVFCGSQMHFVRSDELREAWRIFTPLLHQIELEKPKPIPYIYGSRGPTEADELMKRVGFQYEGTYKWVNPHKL
# [8] = tested on: Vero; assay: viability of Vero cells under compound – cytotoxicity control for flavivirus capping enzyme inhibitors (AID 588742); assay type: functional; details: Chlorocebus sabaeus
# [9] = bead-based luminescence quenchers, dual-tagged ARNT – biochemical, AlphaScreen, cherry-pick, artefact control for ARNT-TACC3 interaction inhibitor project, dose response (AID 651705); assay type: functional;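 note: AlphaScreen bead proximity signal that flags compounds interfering with the detection technology; potency reflects signal decrease which marks the compound as an assay artifact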
# [10] = cells; assay type: functional, cell-based
# [11] = HIV-1 Vif–A3G interaction blockers – biochemical, TR-FRET, GST-Vif 1-94, biotin-A3G peptide, dose response retest, primary screen (AID 1117319); assay type: functional;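 note: TR-FRET signal of purified GST-Vif binding a biotinylated A3G peptide; inhibitors lower the FRET signal by blocking Vif and A3G binding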
# [12] = tested on: BJ; assay: BJ-TERT fibroblast viability loss – cell-based, RAS-independent, luminescence, dose response (AID 1933); assay type: functional; details: Homo sapiens
# [13] = target: E3 ubiquitin-protein ligase XIAP (Homo sapiens, UniProt P98170); assay: Counter Screen using XIAP-Bir3 for Chemical Antagonists of Bir1/2 domains of IAP-family anti-apoptotic proteins. [Related pubchem assays (depositor defined):AID1018, AID1449, AID1514, AID1638, AID1749, AID1750, AID488957, AID488963]
# Chain of E3 ubiquitin-protein ligase XIAP (P98170 whole entry): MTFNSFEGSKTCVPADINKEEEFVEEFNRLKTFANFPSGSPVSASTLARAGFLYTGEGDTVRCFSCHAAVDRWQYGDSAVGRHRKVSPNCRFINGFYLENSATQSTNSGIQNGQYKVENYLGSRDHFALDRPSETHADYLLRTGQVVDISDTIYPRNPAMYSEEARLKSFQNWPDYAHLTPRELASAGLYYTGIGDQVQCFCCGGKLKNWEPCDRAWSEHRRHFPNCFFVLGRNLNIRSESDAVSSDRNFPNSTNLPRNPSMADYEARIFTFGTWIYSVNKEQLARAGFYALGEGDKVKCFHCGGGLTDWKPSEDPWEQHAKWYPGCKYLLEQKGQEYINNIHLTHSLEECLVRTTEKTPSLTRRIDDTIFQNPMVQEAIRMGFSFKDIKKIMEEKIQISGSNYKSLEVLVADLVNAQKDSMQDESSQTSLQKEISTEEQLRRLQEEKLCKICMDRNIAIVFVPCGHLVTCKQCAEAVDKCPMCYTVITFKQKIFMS
# [14] = target: T3, Alkaline phosphatase, tissue-nonspecific isozyme (Homo sapiens, UniProt P05186); assay: activation of tissue-nonspecific alkaline phosphatase – biochemical, TNAP isozyme, mouse IAP uHTS hits, selectivity assay for mouse IAP activator project, dose response (AID 488880); assay type: functional
# T3 sequence (P05186 whole entry): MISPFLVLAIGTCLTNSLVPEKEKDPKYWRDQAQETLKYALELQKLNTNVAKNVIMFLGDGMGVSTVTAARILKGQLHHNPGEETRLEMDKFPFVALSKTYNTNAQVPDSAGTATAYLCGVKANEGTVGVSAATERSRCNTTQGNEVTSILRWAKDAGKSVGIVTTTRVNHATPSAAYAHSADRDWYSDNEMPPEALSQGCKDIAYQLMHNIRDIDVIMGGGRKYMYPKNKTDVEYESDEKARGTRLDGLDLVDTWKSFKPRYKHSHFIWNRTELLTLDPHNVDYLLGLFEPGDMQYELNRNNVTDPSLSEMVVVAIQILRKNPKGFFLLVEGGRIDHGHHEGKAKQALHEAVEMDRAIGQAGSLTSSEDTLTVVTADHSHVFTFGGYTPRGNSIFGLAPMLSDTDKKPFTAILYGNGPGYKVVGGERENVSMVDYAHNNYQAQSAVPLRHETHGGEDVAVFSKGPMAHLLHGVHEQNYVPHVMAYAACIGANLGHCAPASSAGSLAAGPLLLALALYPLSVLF
# [15] = target: Induced myeloid leukemia cell differentiation protein Mcl-1 (Homo sapiens, UniProt Q07820); assay type: functional
# Chain of Induced myeloid leukemia cell differentiation protein Mcl-1 (Q07820 whole entry): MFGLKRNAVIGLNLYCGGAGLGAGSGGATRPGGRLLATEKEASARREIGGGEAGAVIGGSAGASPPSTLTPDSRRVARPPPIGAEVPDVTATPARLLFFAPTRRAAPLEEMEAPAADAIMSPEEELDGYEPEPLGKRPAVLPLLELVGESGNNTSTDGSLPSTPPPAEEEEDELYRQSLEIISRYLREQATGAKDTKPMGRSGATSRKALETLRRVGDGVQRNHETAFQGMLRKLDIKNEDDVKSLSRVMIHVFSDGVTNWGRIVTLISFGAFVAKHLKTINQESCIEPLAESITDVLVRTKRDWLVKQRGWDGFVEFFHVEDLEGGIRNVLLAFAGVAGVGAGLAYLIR
# [16] = target: Intestinal-type alkaline phosphatase (Homo sapiens, UniProt P09923); assay: activation of human intestinal alkaline phosphatase – biochemical, dose response (AID 488873); assay type: functional
# Chain of Intestinal-type alkaline phosphatase (P09923 whole entry): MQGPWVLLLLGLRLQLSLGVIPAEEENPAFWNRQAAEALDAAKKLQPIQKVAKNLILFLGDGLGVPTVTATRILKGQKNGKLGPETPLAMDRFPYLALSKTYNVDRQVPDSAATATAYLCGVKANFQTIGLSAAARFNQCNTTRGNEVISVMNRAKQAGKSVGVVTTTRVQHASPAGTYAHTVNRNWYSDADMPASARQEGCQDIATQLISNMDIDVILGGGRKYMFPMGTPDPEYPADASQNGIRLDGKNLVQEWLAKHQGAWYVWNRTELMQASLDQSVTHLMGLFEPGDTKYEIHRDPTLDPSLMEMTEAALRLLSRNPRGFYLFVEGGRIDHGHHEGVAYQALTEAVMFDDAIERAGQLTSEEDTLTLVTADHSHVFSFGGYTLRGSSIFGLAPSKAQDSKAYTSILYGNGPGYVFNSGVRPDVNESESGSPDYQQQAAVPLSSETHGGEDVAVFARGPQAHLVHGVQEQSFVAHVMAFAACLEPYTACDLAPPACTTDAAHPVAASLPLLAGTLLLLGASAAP
# [17] = target: T4, Sentrin-specific protease 8 (Homo sapiens, UniProt Q96LD8); assay type: functional;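 note: kinetic enzyme assay of SENP8 cleaving a Nedd8 protein substrate, dose-response confirmation of screening hits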
# T4 sequence (Q96LD8 whole entry): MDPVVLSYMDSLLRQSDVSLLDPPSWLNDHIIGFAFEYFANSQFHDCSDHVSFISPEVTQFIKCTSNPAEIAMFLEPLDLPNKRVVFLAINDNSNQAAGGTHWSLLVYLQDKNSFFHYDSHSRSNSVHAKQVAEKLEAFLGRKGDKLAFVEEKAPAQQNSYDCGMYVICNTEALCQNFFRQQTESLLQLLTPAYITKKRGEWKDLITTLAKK
smiles,measurement,setting,value
O=C1C(Nc2ccc(O)cc2)=C/C(=N/S(=O)(=O)c2cccs2)c2ccccc21,IC50,[1],1.65 µM (active)
same,IC50,[2],4.23 µM (active)
same,IC50,[3],> 66.6 µM (inactive)
same,IC50,[4],17.9 µM (active)
same,IC50,[5],0.975 µM (active)
same,IC50,[6],29.3 µM (inactive)
COc1ccc(S(=O)(=O)Nc2cc(SCC(=O)O)c(O)c3ccccc23)cc1,IC50,[7],21.1 µM (inactive)
same,CC50,[8],20.6 µM (active)
same,AC50,[9],104 µM (active)
O=C(/C=C/c1ccco1)Nc1ccc(Oc2ccccc2)cc1,EC50,[10],6.08 µM (active)
same,IC50,[11],> 100 µM (active)
same,EC50,[12],> 150 µM (not active)
CCc1nnc(NS(=O)(=O)c2ccc(NC(=S)NC(=O)/C=C/c3ccc(C(C)C)cc3)cc2)s1,IC50,[13],> 20 µM (inactive)
CC1CC(=O)c2c(cc3c(-c4c(O)cc(O)c5c(O)c6c(cc45)OC(C)CC6=O)c(O)cc(O)c3c2O)O1 (configuration not stated) [CEPHALOCHROMIN],EC50,[14],26.7 µM (active)
same,IC50,[15],1.49 µM (active)
same,EC50,[16],21.7 µM (active)
COC(=O)C(O)(c1c(C)[nH]n(-c2ccccc2)c1=O)C(F)(F)F (configuration not stated),IC50,[17],1.15 µM (active)
